The values below come from paper PMC12311606, “An efficient brain delivery system co-loaded with multiple components of Salvia miltiorrhiza for synergistic treatment of ischemic stroke” (Materials Today Bio, 2025).

A short description of series [1]: In vitro drug release in 1 % SDS (dialysis, HPLC). The class given is physicochemical. Conditions: release from W/HPDA/L, 1 % SDS pH 6.5–6.8. The protocol:
Five compounds were measured by HPLC at 0.5, 1, 2, 4, 8, 12 and 24 h. In order to elucidate the release mechanism of W/HPDA/L, release kinetic models (Ritger-Peppas model) were employed to fit the data available.

The nature of series [2]: Adsorption kinetic model fitting of the five components on the carrier. It is filed as physicochemical. Also noted: k, pseudo-first order: unit not given beside the values. As to the method: Preparation of W/HPDA/L nanoparticles: Briefly, 0.5 mL of TEOS were added over a stirred solution of 2 mL of NH3∙H2O solution in 100 mL of ethanol. The reaction mixture was vigorously stirred at room temperature for 3 h to obtain SiO2 nanoparticles. Then, 1.5 mL of APTES were dropped to the reaction mixture. Finally, SiO2-NH2 nanoparticles were collected by centrifugation at 10000 rpm for 10 min, then washed twice with ethanol and resuspended in ethanol for further use. As for the preparation of W@SiO2 nanoparticles, 1 mL of SiO2-NH2 nanoparticles and 4 mL of water components solution (1 mg RA and 12 mg SAB) were first mixed together. Under stirring for 12 h, the resultant W@SiO2 nanoparticles were acquired by centrifugation (10000 rpm, 10 min) and washed thrice with DI water. The total content of water-soluble in the supernatant (free RA and SAB) were determined by HPLC. W@SiO2 nanoparticles obtained by centrifugation were resuspended with Tris-HCl solution containing dopamine hydrochloride. PDA was prepared according to our precious report. This was followed by the addition of 2 mL of etching solution. Then, through centrifugation (12000 rpm, 5 min) and washing with ultrapure water three times, W/HPDA nanoparticles were acquired for later use. After dissolving 6 mg of lipid-soluble components (1 mg CPT, 2.5 mg TSI and 2.5 mg TSA) in 4 mL of ethanol, it was added to 1 mL of W/HPDA nanoparticles dispersed solution. After 12 h of stirring at room temperature, W/HPDA/L nanoparticles were collected by centrifugation and subsequently dispersed in water for further use. Similarly, HPDA was synthesized as previously described. 13 mg of water-soluble components solution (1 mg RA and 12 mg SAB) and 6 mg of lipid-soluble components (1 mg CPT, 2.5 mg TSI and 2.5 mg TSA) were dissolved in 4 mL PBS containing 0.1 % DMSO and added to 3 mL HPDA aqueous dispersion. The mixture was then stirred at room temperature for 12 h, centrifuged, and washed to obtain HPDA/WL nanoparticles. The total content of lipid-soluble in the supernatant (free CPT, TSI and TSA) were determined by HPLC.
An adsorption kinetic model was used to fit the effect of adsorption time on the adsorption performance of adsorbents, further speculating the mechanism of adsorption. The results of the adsorption kinetics of five components were fitted using the pseudo-first-order and pseudo-second-order model, respectively.

The next series concerns ZO-1. The series can be described thus: ZO-1 tension by FRET-based tension probes in bEnd.3 cells. Conditions: 15 min treatment, then removal and 15 min observation. It is filed as cell-based. The protocol:
(§1) 6 × 10^4 bEnd.3 cells were seeded in the donor chamber of 24-well transwell inserts. […] The viability of bEnd.3 cells following borneol treatment was assessed using the Cell Counting Kit-8 (CCK-8) assay. We added 0.9 mL of PBS-based assay medium to blank 24-well culture plates and 0.2 mL of borneol (0, 100, 400 μM) to the apical side of the BBB layers. TEER was measured at 5, 10, and 15 min. Additionally, 100 nm silica nanoparticles and sodium fluorescein at the same concentrations were administered at three time points. […] The intracellular tension of the tight junction protein ZO-1 was evaluated using fluorescence resonance energy transfer (FRET)-based tension probes and cpstFRET analysis, as previously described. bEnd.3 cells were transfected with ZO-1 probes and incubated with 1000 μg/mL geneticin. After treating the cells with borneol for 15 min, the borneol was removed, and observations continued for an additional 15 min. Cells treated with Hanks' solution served as the control group. The cell images were taken with × 63 oil lens on a confocal microscope (SP5; Leica, Wetzlar, Germany). The CFP/FRET ratio was calculated using the equation 1/E = cerulean donor/venus acceptor.

Series [3] deals with bEnd.3 cells. The series can be described thus: In vitro BBB permeability (bEnd.3 transwell model). It is filed as cell-based. Conditions: 100 and 400 μmol borneol. The protocol:
as §1, with “TEER was measured at 5, 10, and 15 min.” left out, “cpstFRET” left out

Series [4] deals with bEnd.3 cells. The series can be described thus: Viability of bEnd.3 cells following borneol treatment (CCK-8). The class given is cell-based. Conditions: 5 to 500 μmol/l. The protocol:
as §1

Molecules are shown by their SMILES.

As for `C[C@H]1COC2=C1C(=O)C(=O)c1c2ccc2c1CCCC2(C)C` [CPT, cryptotanshinone], in series [1], the “Ritger-Peppas release exponent n” value is “n = 0.39” and the “Ritger-Peppas release model coefficient (y = k t^n)” value is reported as “y = 19.26t^n”. Besides, in series [2], the “Qe, pseudo-first order” value was found to be 4.60 mg/g; the “Qe, pseudo-second order” value is reported as 5.06 mg/g; the “k, pseudo-first order” value worked out at 0.76; the “k, pseudo-second order” value worked out at 0.14.

Take `O=C(/C=C/c1ccc(O)c2c1[C@H](C(=O)O[C@H](Cc1ccc(O)c(O)c1)C(=O)O)[C@@H](c1ccc(O)c(O)c1)O2)O[C@H](Cc1ccc(O)c(O)c1)C(=O)O` [SAB, salvianolic acid B]: in series [1], the “Ritger-Peppas release exponent n” value is on record as “n = 0.78” and the “Ritger-Peppas release model coefficient (y = k t^n)” value was “y = 8.41t^n”. In addition, in series [2], the “Qe, pseudo-first order” value was 18.27 mg/g; the “Qe, pseudo-second order” value is on record as 21.95 mg/g; the “k, pseudo-first order” value was 0.27; the “k, pseudo-second order” value is 0.01.

Turning to `N[C@@H](CCC(=O)O)C(=O)O` [Glu, Glutamate, reference compound], the “ZO1 tension (CFP/FRET)” value with ZO-1 was “increased and continued to rise even 15 min after Glu removal”.

`Cc1coc2c1C(=O)C(=O)c1c-2ccc2c(C)cccc12` [TSI, tanshinone I]: in series [1], the “Ritger-Peppas release exponent n” value is listed as “n = 0.35” and the “Ritger-Peppas release model coefficient (y = k t^n)” value is given as “y = 27.02t^n”. In series [2], the “Qe, pseudo-first order” value is given as 4.50 mg/g; the “Qe, pseudo-second order” value was found to be 5.21 mg/g; the “k, pseudo-first order” value was determined as 0.53; the “k, pseudo-second order” value came to 0.16.

Take `Cc1coc2c1C(=O)C(=O)c1c-2ccc2c1CCCC2(C)C` [TSA, tanshinone IIA]: in series [1], the “Ritger-Peppas release exponent n” value is reported as “n = 0.37” and the “Ritger-Peppas release model coefficient (y = k t^n)” value was “y = 24.68t^n”. Further, in series [2], the “Qe, pseudo-first order” value is listed as 4.14 mg/g; the “Qe, pseudo-second order” value worked out at 4.74 mg/g; the “k, pseudo-first order” value is reported as 0.89; the “k, pseudo-second order” value came out at 0.21.

Turning to `O=C(/C=C/c1ccc(O)c(O)c1)O[C@H](Cc1ccc(O)c(O)c1)C(=O)O` [RA, rosmarinic acid], in series [1], the “Ritger-Peppas release exponent n” value was “n = 0.83” and the “Ritger-Peppas release model coefficient (y = k t^n)” value is “y = 6.28t^n”. Besides, in series [2], the “Qe, pseudo-first order” value is listed as 6.23 mg/g; the “Qe, pseudo-second order” value was 7.78 mg/g; the “k, pseudo-first order” value is listed as 0.29; the “k, pseudo-second order” value worked out at 0.03.

Regarding `CC1(C)C2CCC1(C)C(O)C2` (stereo not shown) [borneol], in the series on ZO-1, the “ZO1 tension (CFP/FRET)” value was “increased but decreased after 15 min of borneol removal”. Further, the “Time at which maximum BBB permeability is reached” value in the series on bEnd.3 cells [3] is on record as 10 min. Besides, in the series on bEnd.3 cells [4], the “Cytotoxic effects on bEnd.3 cells” value is given as “no cytotoxic effects”.
